Measured values from PubChem BioAssay AID1963846 (Molecular Pharmacology Branch, DTP, NCI, 2024).

System: 454973-116-R2-J3-PDC complex spheroid viability
Test: Anticancer human tumor 454973-116-R2-J3-PDC patient-derived pancreatic carcinoma cell line growth inhibition [POLQ]
Details: for IC50: curve of first compound; for viability, T/C: stronger effect = lower value
Procedure, shortened: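 Growth inhibition in 3D: complex spheroids (tumor PDC, HUVEC, MSC) treated with POLQ inhibitor combinations; where Cmax unknown, highest tested concentration 10 microM, except SN-38 at 1 microM.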

[1] = second compound 0.0316 µM, first compound 0.0316 µM
[2] = second compound 0.0316 µM, first compound 0.1 µM
[3] = second compound 0.0316 µM, first compound 0.316 µM
[4] = second compound 0.0316 µM, first compound 1 µM
[5] = second compound 0.1 µM, first compound 0.0316 µM
[6] = second compound 0.1 µM, first compound 0.1 µM
[7] = second compound 0.1 µM, first compound 0.316 µM
[8] = second compound 0.1 µM, first compound 1 µM
[9] = second compound 0.316 µM, first compound 0.0316 µM
[10] = second compound 0.316 µM, first compound 0.1 µM
[11] = second compound 0.316 µM, first compound 0.316 µM
[12] = second compound 0.316 µM, first compound 1 µM
[13] = second compound 1 µM, first compound 0.0316 µM
[14] = second compound 1 µM, first compound 0.1 µM
[15] = second compound 1 µM, first compound 0.316 µM
[16] = second compound 1 µM, first compound 1 µM
[17] = second compound 3.16 µM, first compound 0.0316 µM
[18] = second compound 3.16 µM, first compound 0.1 µM
[19] = second compound 3.16 µM, first compound 0.316 µM
[20] = second compound 3.16 µM, first compound 1 µM
[21] = second compound 10 µM, first compound 0.0316 µM
[22] = second compound 10 µM, first compound 0.1 µM
[23] = second compound 10 µM, first compound 0.316 µM
[24] = second compound 10 µM, first compound 1 µM
[25] = second compound 0.0316 µM, first compound 3.16 µM
[26] = second compound 0.0316 µM, first compound 10 µM
[27] = second compound 0.1 µM, first compound 3.16 µM
[28] = second compound 0.1 µM, first compound 10 µM
[29] = second compound 0.316 µM, first compound 3.16 µM
[30] = second compound 0.316 µM, first compound 10 µM
[31] = second compound 1 µM, first compound 3.16 µM
[32] = second compound 1 µM, first compound 10 µM
[33] = second compound 3.16 µM, first compound 3.16 µM
[34] = second compound 3.16 µM, first compound 10 µM
[35] = second compound 10 µM, first compound 3.16 µM
[36] = second compound 10 µM, first compound 10 µM
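Note: spheroids exposed to drugs for seven days before measurement.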
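Throughout, for viability, T/C: percent viability relative to DMSO vehicle control wells taken as 100%.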

**Q.** Which results are given for C=CCn1c(=O)c2cnc(Nc3ccc(N4CCN(C)CC4)cc3)nc2n1-c1cccc(C(C)(C)O)n1 + Nc1ccc(C#CCN(C(=O)Cc2ncc(C(F)(F)F)cc2C(F)(F)F)c2ccc(F)cc2)nn1?
**A.** IC50 (second compound 0.0316 µM): 0.455 µM; IC50 (second compound 0.1 µM): 0.451 µM; IC50 (second compound 0.316 µM): 0.515 µM; IC50 (second compound 1 µM): 0.408 µM; IC50 (second compound 3.16 µM): 0.475 µM; IC50 (second compound 10 µM): 0.423 µM; viability, T/C (second compound 0.0316 µM, first compound 0.00316 µM): 108%; viability, T/C (second compound 0.0316 µM, first compound 0.01 µM): 100%; viability, T/C [1]: 104%; viability, T/C [2]: 99%; viability, T/C [3]: 68.7%; viability, T/C [4]: 9.62%; viability, T/C (second compound 0.1 µM, first compound 0.00316 µM): 106%; viability, T/C (second compound 0.1 µM, first compound 0.01 µM): 102%; viability, T/C [5]: 102%; viability, T/C [6]: 104%; viability, T/C [7]: 68.5%; viability, T/C [8]: 8.41%; viability, T/C (second compound 0.316 µM, first compound 0.00316 µM): 99.3%; viability, T/C (second compound 0.316 µM, first compound 0.01 µM): 109%; viability, T/C [9]: 106%; viability, T/C [10]: 107%; viability, T/C [11]: 79.3%; viability, T/C [12]: 10.2%; viability, T/C (second compound 1 µM, first compound 0.00316 µM): 105%; viability, T/C (second compound 1 µM, first compound 0.01 µM): 101%; viability, T/C [13]: 114%; viability, T/C [14]: 114%; viability, T/C [15]: 62.3%; viability, T/C [16]: 6.99%; viability, T/C (second compound 3.16 µM, first compound 0.00316 µM): 105%; viability, T/C (second compound 3.16 µM, first compound 0.01 µM): 114%; viability, T/C [17]: 115%; viability, T/C [18]: 114%; viability, T/C [19]: 72.7%; viability, T/C [20]: 8.66%; viability, T/C (second compound 10 µM, first compound 0.00316 µM): 116%; viability, T/C (second compound 10 µM, first compound 0.01 µM): 116%; viability, T/C [21]: 129%; viability, T/C [22]: 112%; viability, T/C [23]: 65%; viability, T/C [24]: 6.21%

**Q.** With CC1COCCN1c1cc(C2(S(C)(=N)=O)CC2)nc(-c2ccnc3[nH]ccc23)n1 (stereo unspecified) + Nc1ccc(C#CCN(C(=O)Cc2ncc(C(F)(F)F)cc2C(F)(F)F)c2ccc(F)cc2)nn1 as the compound, how does the IC50 (second compound 0.0316 µM) read?
**A.** 4.99 µM

**Q.** And the IC50 (second compound 0.1 µM)?
**A.** 5.25 µM

**Q.** What about the IC50 (second compound 0.316 µM) of the same compound?
**A.** 4.65 µM

**Q.** And the IC50 (second compound 1 µM)?
**A.** 4.27 µM

**Q.** And the IC50 (second compound 3.16 µM)?
**A.** 4.31 µM

**Q.** What about the IC50 (second compound 10 µM) of the same compound?
**A.** 3.67 µM

**Q.** What about the viability, T/C [1] of the same compound?
**A.** 115%

**Q.** What about the viability, T/C [2] of the same compound?
**A.** 104%

**Q.** And the viability, T/C [3]?
**A.** 112%

**Q.** What about the viability, T/C [4] of the same compound?
**A.** 100%

**Q.** What about the viability, T/C [25] of the same compound?
**A.** 68%

**Q.** And the viability, T/C [26]?
**A.** 22.5%

**Q.** And the viability, T/C [5]?
**A.** 99.5%

**Q.** And the viability, T/C [6]?
**A.** 109%

**Q.** What about the viability, T/C [7] of the same compound?
**A.** 104%

**Q.** What about the viability, T/C [8] of the same compound?
**A.** 97.5%

**Q.** What about the viability, T/C [27] of the same compound?
**A.** 70.3%

**Q.** And the viability, T/C [28]?
**A.** 24.3%

**Q.** And the viability, T/C [9]?
**A.** 109%

**Q.** What about the viability, T/C [10] of the same compound?
**A.** 122%

**Q.** And the viability, T/C [11]?
**A.** 104%

**Q.** What about the viability, T/C [12] of the same compound?
**A.** 95.2%

**Q.** What about the viability, T/C [29] of the same compound?
**A.** 64.8%

**Q.** What about the viability, T/C [30] of the same compound?
**A.** 20.9%

**Q.** And the viability, T/C [13]?
**A.** 110%

**Q.** And the viability, T/C [14]?
**A.** 111%

**Q.** What about the viability, T/C [15] of the same compound?
**A.** 109%

**Q.** What about the viability, T/C [16] of the same compound?
**A.** 109%

**Q.** And the viability, T/C [31]?
**A.** 61.6%

**Q.** And the viability, T/C [32]?
**A.** 17.3%

**Q.** What about the viability, T/C [17] of the same compound?
**A.** 116%

**Q.** What about the viability, T/C [18] of the same compound?
**A.** 106%

**Q.** And the viability, T/C [19]?
**A.** 108%

**Q.** And the viability, T/C [20]?
**A.** 105%

**Q.** And the viability, T/C [33]?
**A.** 59.9%

**Q.** And the viability, T/C [34]?
**A.** 23.1%

**Q.** And the viability, T/C [21]?
**A.** 122%

**Q.** And the viability, T/C [22]?
**A.** 114%

**Q.** And the viability, T/C [23]?
**A.** 113%

**Q.** What about the viability, T/C [24] of the same compound?
**A.** 111%

**Q.** What about the viability, T/C [35] of the same compound?
**A.** 55%

**Q.** What about the viability, T/C [36] of the same compound?
**A.** 15.5%

**Q.** Which results are given for CCCS(=O)(=O)Nc1ccc(F)c(C(=O)c2c[nH]c3ncc(-c4ccc(Cl)cc4)cc23)c1F + Nc1ccc(C#CCN(C(=O)Cc2ncc(C(F)(F)F)cc2C(F)(F)F)c2ccc(F)cc2)nn1?
**A.** IC50 (second compound 0.0316 µM): 8.62 µM; IC50 (second compound 0.1 µM): 8.22 µM; IC50 (second compound 0.316 µM): 8.45 µM; IC50 (second compound 1 µM): 8.62 µM; IC50 (second compound 3.16 µM): 8.46 µM; IC50 (second compound 10 µM): 7.56 µM; viability, T/C [1]: 106%; viability, T/C [2]: 109%; viability, T/C [3]: 117%; viability, T/C [4]: 114%; viability, T/C [25]: 114%; viability, T/C [26]: 40.7%; viability, T/C [5]: 104%; viability, T/C [6]: 109%; viability, T/C [7]: 108%; viability, T/C [8]: 115%; viability, T/C [27]: 113%; viability, T/C [28]: 37.6%; viability, T/C [9]: 106%; viability, T/C [10]: 109%; viability, T/C [11]: 110%; viability, T/C [12]: 114%; viability, T/C [29]: 120%; viability, T/C [30]: 39.5%; viability, T/C [13]: 112%; viability, T/C [14]: 116%; viability, T/C [15]: 116%; viability, T/C [16]: 117%; viability, T/C [31]: 114%; viability, T/C [32]: 40.4%; viability, T/C [17]: 116%; viability, T/C [18]: 118%; viability, T/C [19]: 112%; viability, T/C [20]: 115%; viability, T/C [33]: 113%; viability, T/C [34]: 39.3%; viability, T/C [21]: 133%; viability, T/C [22]: 116%; viability, T/C [23]: 117%; viability, T/C [24]: 116%; viability, T/C [35]: 116%; viability, T/C [36]: 28.9%
